Test results: patent US8809333B2, “Imidazole, pyrazole, and triazole derivatives useful as antibacterial agents” (Pfizer Inc., priority 2011, dated 2014)
≈ marks a conversion by molar mass, not a printed value.

How the values were obtained:
[1] = system: Escherichia coli EC-1: VOGEL, mouse virulent; assay: MIC determination (CLSI), EC-1; format: cell-based; settings: for MIC: Escherichia coli, read-out: EC-1 (MIC)
Method in brief: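 Broth dilution MIC per CLSI M7-A8, with 2-fold compound dilutions incubated overnight with a standard inoculum. MIC is the lowest concentration visibly inhibiting growth versus drug-free control; tested in duplicate, reporting the lower value when within 2-fold, with QC organisms and reference compounds required in range.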

[2] = system: Pseudomonas aeruginosa UI-18: Wild-type (PA-7); assay: MIC determination (CLSI), PA-7; format: cell-based; settings: Pseudomonas aeruginosa UI-18 wild-type, overnight incubation, lower of duplicate values; for MIC: read-out: PA-7 (MIC)
Method in brief: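 Broth dilution MIC per CLSI M7-A8, using 2-fold compound dilutions incubated overnight; MIC is the lowest concentration with no visible growth versus the drug-free control. Run in duplicate, lower value reported when within 2-fold. Control organisms and reference compounds were included for QC.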

[3] = system: Klebsiella pneumoniae: Ciprofloxacin-resistant isolate, expresses ESBL, clinical isolate (KP-3700); assay: MIC determination (CLSI), KP-3700; format: cell-based; settings: overnight incubation, lower of duplicate values
Method in brief: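 Broth dilution MIC per CLSI M7-A8 against the ciprofloxacin-resistant, ESBL-expressing clinical isolate, 2-fold concentration steps, overnight incubation, visual read of lowest growth-inhibiting concentration. Tested in duplicate; lower value reported when within 2-fold; control organisms and reference compounds required within range.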

[4] = system: Acinetobacter baumannii/haemolyticus: Multidrug-resistant clinical isolate (AB-3167); assay: MIC determination (CLSI), AB-3167; format: cell-based; settings: Acinetobacter baumannii/haemolyticus multidrug-resistant clinical isolate, overnight incubation, lower of duplicate values; for MIC: read-out: AB-3167 (MIC)
Method in brief: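 Broth dilution MIC per CLSI M7-A8, 2-fold concentration steps, overnight incubation, visual read of lowest concentration inhibiting growth versus drug-free control. Tested in duplicate; lower value reported if within 2-fold, otherwise repeated; QC organisms and reference drugs required within range.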

[5] = target: T1, Pseudomonas aeruginosa LpxC enzyme (Pseudomonas aeruginosa, UniProt P47205); assay: IC50 assay, LpxC enzyme from P. aeruginosa (BioTrove RapidFire mass spectrometry); format: biochemical; settings: P. aeruginosa LpxC enzyme 0.1 nM, 25° C., 1 hour, pH 8.0; read-out: PA: IC50
T1 construct: made in house; host or cells: E. coli
T1 sequence (P47205 1-303): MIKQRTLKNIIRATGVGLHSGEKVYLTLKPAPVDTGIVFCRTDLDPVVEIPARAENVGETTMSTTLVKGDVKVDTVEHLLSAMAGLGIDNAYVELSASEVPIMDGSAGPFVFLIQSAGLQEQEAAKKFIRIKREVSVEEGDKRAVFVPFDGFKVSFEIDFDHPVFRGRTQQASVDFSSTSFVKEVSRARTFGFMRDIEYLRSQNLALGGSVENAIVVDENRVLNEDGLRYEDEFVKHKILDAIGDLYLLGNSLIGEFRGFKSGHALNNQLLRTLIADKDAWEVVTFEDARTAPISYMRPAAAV
Method in brief: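 P. aeruginosa LpxC reaction run 1 hour, stopped with 1 N HCl, and substrate-to-product conversion quantified by RapidFire mass spectrometry. IC50 calculated from percent conversion using a no-enzyme control.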

Molecule	MIC [1]	MIC [2]	KP-3700 (MIC) [3]	MIC [4]	IC50 [5]	EC-1 (MIC) ([1]; Escherichia coli EC-1 VOGEL, mouse virulent, overnight incubation, lower of duplicate values)	PA-7 (MIC) [2]	AB-3167 (MIC) [4]
CC(CCn1cc(-c2cccc(-c3ccno3)c2)cn1)(C(=O)NO)S(C)(=O)=O (stereo not drawn) [Example 74, N-hydroxy-2-methyl-2-(methylsulfonyl)-4-{4-[3-(1,2-oxazol-5-yl)phenyl]-1H-pyrazol-1-yl}butanamide]	> 64 µg/mL	32 µg/mL (≈ 79.1 µM)	>64.0 µg/mL	> 64 µg/mL	2.45 nM			
CC(CCn1cc(-c2ccc3c(c2)C(=O)CCC3)cn1)(C(=O)NO)S(C)(=O)=O (stereo not drawn) [Example 75, N-hydroxy-2-methyl-2-(methylsulfonyl)-4-[4-(8-oxo-5,6,7,8-tetrahydronaphthalen-2-yl)-1H-pyrazol-1-yl]butanamide]	> 64 µg/mL	64 µg/mL (≈ 158 µM)	>64.0 µg/mL	> 64 µg/mL	7.17 nM			
CC(CCn1cc(-c2ccc(C(F)(F)F)cn2)cn1)(C(=O)NO)S(C)(=O)=O (stereo not drawn) [Example 76, N-hydroxy-2-methyl-2-(methylsulfonyl)-4-{4-[5-(trifluoromethyl)pyridin-2-yl]-1H-pyrazol-1-yl}butanamide]	> 64 µg/mL	64 µg/mL (≈ 157 µM)	>64.0 µg/mL	> 64 µg/mL	37.3 nM			
CC(CCn1cc(-c2ccc(C(F)(F)F)nc2)cn1)(C(=O)NO)S(C)(=O)=O (stereo not drawn) [Example 77, N-hydroxy-2-methyl-2-(methylsulfonyl)-4-{4-[6-(trifluoromethyl)pyridin-3-yl]-1H-pyrazol-1-yl}butanamide]	> 64 µg/mL	64 µg/mL (≈ 157 µM)	>64.0 µg/mL	> 64 µg/mL	19.5 nM			
CCOc1ccc(-c2cnn(CCC(C)(C(=O)NO)S(C)(=O)=O)c2)cc1C#N (stereo not drawn) [Example 78, 4-[4-(3-cyano-4-ethoxyphenyl)-1H-pyrazol-1-yl]-N-hydroxy-2-methyl-2-(methylsulfonyl)butanamide]	> 64 µg/mL	64 µg/mL (≈ 157 µM)	>64.0 µg/mL	> 64 µg/mL	21.7 nM			
Cc1nc2ccc(-c3cnn(CCC(C)(C(=O)NO)S(C)(=O)=O)c3)cc2s1 (stereo not drawn) [Example 79, N-hydroxy-2-methyl-4-[4-(2-methyl-1,3-benzothiazol-6-yl)-1H-pyrazol-1-yl]-2-(methylsulfonyl)butanamide]	64 µg/mL (≈ 157 µM)	16 µg/mL (≈ 39.2 µM)	>64.0 µg/mL	> 64 µg/mL	6.22 nM			
CC(CCn1cc(-c2ccc3nc(N)sc3c2)cn1)(C(=O)NO)S(C)(=O)=O (stereo not drawn) [Example 80, 4-[4-(2-amino-1,3-benzothiazol-6-yl)-1H-pyrazol-1-yl]-N-hydroxy-2-methyl-2-(methylsulfonyl)butanamide]	> 64 µg/mL	> 64 µg/mL	>64.0 µg/mL	> 64 µg/mL	75.8 nM			
CC(C)COc1ccc(-c2cnn(CCC(C)(C(=O)NO)S(C)(=O)=O)c2)cn1 (stereo not drawn) [Example 81, N-hydroxy-2-methyl-4-{4-[6-(2-methylpropoxy)pyridin-3-yl]-1H-pyrazol-1-yl}-2-(methylsulfonyl)butanamide]	8 µg/mL (≈ 19.5 µM)	32 µg/mL (≈ 78 µM)	32 µg/mL	> 64 µg/mL	2.07 nM			
Cn1nccc1-c1ccc(-c2cnn(CCC(C)(C(=O)NO)S(C)(=O)=O)c2)cc1 (stereo not drawn) [Example 82, N-hydroxy-2-methyl-4-{4-[4-(1-methyl-1H-pyrazol-5-yl)phenyl]-1H-pyrazol-1-yl}-2-(methylsulfonyl)butanamide]	8 µg/mL (≈ 19.2 µM)	16 µg/mL (≈ 38.3 µM)	32 µg/mL	> 64 µg/mL	3.29 nM			
Cc1cc(-c2ccc(-c3cnn(CCC(C)(C(=O)NO)S(C)(=O)=O)c3)cc2)[nH]n1 (stereo not drawn) [Example 84, N-hydroxy-2-methyl-4-{4-[4-(3-methyl-1H-pyrazol-5-yl)phenyl]-1H-pyrazol-1-yl}-2-(methylsulfonyl)butanamide]	16 µg/mL (≈ 38.3 µM)	64 µg/mL (≈ 153 µM)	>64.0 µg/mL	> 64 µg/mL	6.44 nM			
CC(CCn1cc(-c2cccc(-c3cc(N)[nH]n3)c2)cn1)(C(=O)NO)S(C)(=O)=O (stereo not drawn) [Example 85, 4-{4-[3-(5-amino-1H-pyrazol-3-yl)phenyl]-1H-pyrazol-1-yl}-N-hydroxy-2-methyl-2-(methylsulfonyl)butanamide]	> 64 µg/mL	> 64 µg/mL	>64.0 µg/mL	> 64 µg/mL	58.9 nM			
CC(CCn1cc(-c2ccc3cc(C(N)=O)[nH]c3c2)cn1)(C(=O)NO)S(C)(=O)=O (stereo not drawn) [Example 86, 6-{1-[4-(hydroxyamino)-3-methyl-3-(methylsulfonyl)-4-oxobutyl]-1H-pyrazol-4-yl}-1H-indole-2-carboxamide]	> 64 µg/mL	> 64 µg/mL	>64.0 µg/mL	> 64 µg/mL	14.5 nM			
CC(CCn1cc(-c2ccc3[nH]c(C(N)=O)cc3c2)cn1)(C(=O)NO)S(C)(=O)=O (stereo not drawn) [Example 87, 5-{1-[4-(hydroxyamino)-3-methyl-3-(methylsulfonyl)-4-oxobutyl]-1H-pyrazol-4-yl}-1H-indole-2-carboxamide]	> 64 µg/mL	> 64 µg/mL	>64.0 µg/mL	> 64 µg/mL	63.6 nM			
CC(CCn1cc(-c2cccc(OC(F)(F)F)c2)cn1)(C(=O)NO)S(C)(=O)=O (stereo not drawn) [Example 88, N-hydroxy-2-methyl-2-(methylsulfonyl)-4-{4-[3-(trifluoromethoxy)phenyl]-1H-pyrazol-1-yl}butanamide]	32 µg/mL (≈ 75.9 µM)	8 µg/mL (≈ 19 µM)	>64.0 µg/mL	64 µg/mL (≈ 152 µM)	0.652 nM			
CC(CCn1cc(-c2ccc(-c3csnn3)cc2)cn1)(C(=O)NO)S(C)(=O)=O (stereo not drawn) [Example 90, N-hydroxy-2-methyl-2-(methylsulfonyl)-4-{4-[4-(1,2,3-thiadiazol-4-yl)phenyl]-1H-pyrazol-1-yl}butanamide]	16 µg/mL (≈ 38 µM)	4 µg/mL (≈ 9.49 µM)	64 µg/mL	> 64 µg/mL	1.23 nM			
CCc1nc2ccc(-c3cnn(CCC(C)(C(=O)NO)S(C)(=O)=O)c3)cc2s1 (stereo not drawn) [Example 91, 4-[4-(2-ethyl-1,3-benzothiazol-6-yl)-1H-pyrazol-1-yl]-N-hydroxy-2-methyl-2-(methylsulfonyl)butanamide]	32 µg/mL (≈ 75.7 µM)	16 µg/mL (≈ 37.9 µM)	>64.0 µg/mL	> 64 µg/mL	2.55 nM			
Cc1nccc(-c2ccc(-c3cnn(CCC(C)(C(=O)NO)S(C)(=O)=O)c3)cc2)n1 (stereo not drawn) [Example 92, N-hydroxy-2-methyl-4-{4-[4-(2-methylpyrimidin-4-yl)phenyl]-1H-pyrazol-1-yl}-2-(methylsulfonyl)butanamide]	32 µg/mL (≈ 74.5 µM)	32 µg/mL (≈ 74.5 µM)	>64.0 µg/mL	> 64 µg/mL	5.49 nM			
(2R)-4-[4-(2-fluoro-4-methoxyphenyl)-1H-1,2,3-triazol-1-yl]-N-hydroxy-2-methyl-2-(methylsulfonyl)butanamide [Example 22]			32 µg/mL		1.2 nM	4 µg/mL	2 µg/mL	>64.0 µg/mL
